Source: US20230204572A1, “Engineered Biosensors in an Encapsulated and Deployable System (EBEADS) for Environmental Chemical Detection” (priority 2021, published 2023)

Experiments:
aquatic organisms = details: EPA reregistration decision; cited from earlier work
HbpR [1] = assay: Sensor induction in hydrogel microbeads (eBEADS, amplification circuit strain, AmilCP); type: cell-based, Pseudomonas azelaica
Description: The encapsulated sensing strain's ability to detect low concentrations of 2-PP and produce a visible output signal were evaluated by time series of microscope images. Briefly, the positive control strain and 2-PP with amplification circuit strain were encapsulated in the PAA formulation as previously described above. The microbeads were placed on LB agar plates containing 0.2 mM IPTG, 100 μg/mL carbenicillin, and 50 μg/mL kanamycin supplemented with 0, 1 or 10 μM 2-phenylphenol and incubated at 30° C. Images of the sensing strain microbeads were taken at time points 0, 6, 12, 24, and 48 hours with a Nikon SMZ25 stereoscope.

HbpR [2] = assay: AmilCP visual reporter of sensing strains on agar plates and in liquid culture; type: cell-based, Pseudomonas azelaica
Description: Strains containing AmilCP reporters were incubated overnight to saturation at 30° C. with shaking. Three μl of culture were pipetted onto 6 cm LB-agar plates containing 0.2 mM IPTG, 100 μg/mL carbenicillin, 50 μg/mL kanamycin, and 0 μM, 1 μM, or 10 μM of 2-phenylphenol. Images of the plates were taken at time points 0, 6, 12, 24, and 48 hours with a Nikon SMZ25 stereoscope.
After 12-24 hours on agar plates containing 10 μM 2-phenylphenol, the strains with amplification circuit produced enough AmilCP purple reporter to become just barely visible.
While the response time for the AmilCP reporter was slower than the 2 hour response time observed with the β-galactosidase reporter, use of the AmilCP reporter allowed for reporter visualization without additional equipment. When absorbance at 588 nm was used, addition of the amplification circuit in the AmilCP system allowed for detection of 2-PP at concentrations as low as 1 μM (FIG. 4B). The increase in reporter production through genetic amplification made it feasible for the living sensor to maintain a robust, visual reporter output when encapsulated.

HbpR [3] = assay: β-galactosidase (lacZ) reporter activity of sensing strain pBL_IMP_11 without amplification circuit in liquid culture; type: cell-based, Pseudomonas azelaica
Description: Cultures were grown overnight to saturation and then diluted to an OD600 of 0.2. Cultures were incubated at 30° C. with shaking until an OD600 of 0.7-1 before inducing cultures with 2-phenylphenol dissolved in 100% ethanol. Cultures were incubate for 3 hours or 1 mL samples were taken every hour. For experiments where 2-PP was removed after incubating for 3 hours, cultures were divided in two tubes and centrifuged. One half of the cultures were washed with 1×PBS to remove 2-phenylphenol and resuspended in fresh medium with antibiotics and without 2-phenylphenol. The other half was resuspended in their original medium without washing. Aliquots were taken every hour. […] Statistical significance of results was determined using a Student's two-tailed t-test. The limit of detection (LOD) was calculated using GraphPad Prism software and is defined as the blank plus three times the standard deviation of the blank.
In the bacterial sensor cells when exposed to 2-PP, the HbpR promoter is activated by 2-PP and HbpR protein is expressed from the transfected plasmids. […] The Limit of Detection (LOD) was calculated to be 0.863 μM for this sensor strain (FIG. 1i). […]
In order to test the response of the reporter over time, the sensor strains were treated with various amounts of 2-PP and reporter activity was measured every hour for five hours. […]

[4] = system: mutant HbpR protein P4-A-8; details: 50 μM PCB-3 vs 50 μM 2-HBP
Excerpt: (§1) To generate biosensor systems that detect additional analytes, HbpR mutants were generated using a HbpR codon optimized library sequence (SEQ ID NO: 4) and a plasmid containing the same (SEQ ID NO: 8) and selection against different analytes.

[5] = system: mutant HbpR protein P6-B-9; details: 50 μM PCB-1 vs 50 μM 2-PP
Excerpt: as §1

[6] = system: mutant HbpR protein P6-F-8; details: 50 μM PCB-1 vs 50 μM 2-PP
Excerpt: as §1

[7] = system: mutant HbpR protein P6-A-8; details: 50 μM PCB-1 vs 50 μM 2-PP
Excerpt: as §1

[8] = agar plates, 1 μM and 10 μM 2-phenylphenol

## Oc1ccccc1-c1ccccc1 [2-PP, 2-phenylphenol]
Aquatic organisms
  LC50 for some aquatic organisms: ≥ 0.32 µg/mL
HbpR [1]; 10 μM 2-PP, 30° C.
  time to purple color response of encapsulated strain: ≤ 24 h
HbpR [1]; after 48 hours, less than 10 μM 2PP
  response of eBEADS at less than 10 μM: no response
HbpR [2]; absorbance at 588 nm, with amplification circuit, 24 hours
  lowest 2-PP concentration detected with AmilCP: ≥ 1 µM
HbpR [2]; [8]
  AmilCP colour after 48 hours, with amplification circuit: vibrant purple color
  AmilCP colour after 48 hours, without amplification circuit: faintly visible
HbpR [2]; agar plates, 10 μM 2-phenylphenol, with amplification circuit
  time until AmilCP purple reporter just barely visible: 12 to 24 h
HbpR [3]; lacZ reporter, no amplification, three hours, blank plus three SD
  Limit of Detection (LOD): 0.863 µM
HbpR [3]; β-galactosidase reporter
  response time of β-galactosidase reporter: 2 h

## Clc1ccc(-c2ccccc2)cc1 [PCB-3, polychlorinated biphenyl-3]
[4]
  lacZ reporter expression, mutant P4-A-8: selective lacZ reporter expression

## Clc1ccccc1-c1ccccc1 [PCB-1, polychlorinated biphenyl-1]
[5]
  lacZ reporter expression, mutant P6-B-9: selective lacZ reporter expression
[6]
  lacZ reporter expression, mutant P6-F-8: selective lacZ reporter expression
[7]
  lacZ reporter expression, mutant P6-A-8: selective lacZ reporter expression
